{"source": "patent US11766422B2", "about": "“Galloylated procyanidins for treating endovascular dysfunction and increasing blood flow” (UNIVERSITY OF SOUTH FLORIDA, priority 2018, dated 2023)", "key": {"[1]": {"tested_on": "S-G cells (immortalized gum epithelial cells)", "conditions": "cited from earlier work"}, "HUVEC [2]": {"tested_on": "HUVEC", "conditions": "Control: Untreated cells; cited from earlier work"}, "fatty acid synthase": {"target": "fatty acid synthase (Homo sapiens, UniProt P49327)", "conditions": "Control: Untreated enzyme; cited from earlier work"}, "NA+/K+ ATPase pump": {"tested_on": "NA+/K+ ATPase pump", "conditions": "Control: Untreated pump; cited from earlier work"}, "pancreatic lipase": {"target": "T1, pancreatic lipase (Homo sapiens, UniProt P16233)", "T1 sequence (P16233 17-465)": "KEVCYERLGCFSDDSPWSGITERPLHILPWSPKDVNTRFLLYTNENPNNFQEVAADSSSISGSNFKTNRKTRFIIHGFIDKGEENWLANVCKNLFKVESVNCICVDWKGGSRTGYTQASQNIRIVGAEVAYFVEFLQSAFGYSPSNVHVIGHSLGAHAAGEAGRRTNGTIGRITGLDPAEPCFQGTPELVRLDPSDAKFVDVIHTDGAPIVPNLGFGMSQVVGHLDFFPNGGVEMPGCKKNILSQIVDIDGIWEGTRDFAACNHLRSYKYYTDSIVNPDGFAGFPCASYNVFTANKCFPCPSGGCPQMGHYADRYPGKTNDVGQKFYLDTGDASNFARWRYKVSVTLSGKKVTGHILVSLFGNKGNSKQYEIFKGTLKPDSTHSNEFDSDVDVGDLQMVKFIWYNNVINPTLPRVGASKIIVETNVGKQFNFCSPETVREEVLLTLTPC", "conditions": "Control: Untreated enzyme; cited from earlier work"}, "[3]": {"target": "type 1 ryanodine receptor (Homo sapiens, UniProt P21817)", "sequence (P21817 whole entry, species assumed)": "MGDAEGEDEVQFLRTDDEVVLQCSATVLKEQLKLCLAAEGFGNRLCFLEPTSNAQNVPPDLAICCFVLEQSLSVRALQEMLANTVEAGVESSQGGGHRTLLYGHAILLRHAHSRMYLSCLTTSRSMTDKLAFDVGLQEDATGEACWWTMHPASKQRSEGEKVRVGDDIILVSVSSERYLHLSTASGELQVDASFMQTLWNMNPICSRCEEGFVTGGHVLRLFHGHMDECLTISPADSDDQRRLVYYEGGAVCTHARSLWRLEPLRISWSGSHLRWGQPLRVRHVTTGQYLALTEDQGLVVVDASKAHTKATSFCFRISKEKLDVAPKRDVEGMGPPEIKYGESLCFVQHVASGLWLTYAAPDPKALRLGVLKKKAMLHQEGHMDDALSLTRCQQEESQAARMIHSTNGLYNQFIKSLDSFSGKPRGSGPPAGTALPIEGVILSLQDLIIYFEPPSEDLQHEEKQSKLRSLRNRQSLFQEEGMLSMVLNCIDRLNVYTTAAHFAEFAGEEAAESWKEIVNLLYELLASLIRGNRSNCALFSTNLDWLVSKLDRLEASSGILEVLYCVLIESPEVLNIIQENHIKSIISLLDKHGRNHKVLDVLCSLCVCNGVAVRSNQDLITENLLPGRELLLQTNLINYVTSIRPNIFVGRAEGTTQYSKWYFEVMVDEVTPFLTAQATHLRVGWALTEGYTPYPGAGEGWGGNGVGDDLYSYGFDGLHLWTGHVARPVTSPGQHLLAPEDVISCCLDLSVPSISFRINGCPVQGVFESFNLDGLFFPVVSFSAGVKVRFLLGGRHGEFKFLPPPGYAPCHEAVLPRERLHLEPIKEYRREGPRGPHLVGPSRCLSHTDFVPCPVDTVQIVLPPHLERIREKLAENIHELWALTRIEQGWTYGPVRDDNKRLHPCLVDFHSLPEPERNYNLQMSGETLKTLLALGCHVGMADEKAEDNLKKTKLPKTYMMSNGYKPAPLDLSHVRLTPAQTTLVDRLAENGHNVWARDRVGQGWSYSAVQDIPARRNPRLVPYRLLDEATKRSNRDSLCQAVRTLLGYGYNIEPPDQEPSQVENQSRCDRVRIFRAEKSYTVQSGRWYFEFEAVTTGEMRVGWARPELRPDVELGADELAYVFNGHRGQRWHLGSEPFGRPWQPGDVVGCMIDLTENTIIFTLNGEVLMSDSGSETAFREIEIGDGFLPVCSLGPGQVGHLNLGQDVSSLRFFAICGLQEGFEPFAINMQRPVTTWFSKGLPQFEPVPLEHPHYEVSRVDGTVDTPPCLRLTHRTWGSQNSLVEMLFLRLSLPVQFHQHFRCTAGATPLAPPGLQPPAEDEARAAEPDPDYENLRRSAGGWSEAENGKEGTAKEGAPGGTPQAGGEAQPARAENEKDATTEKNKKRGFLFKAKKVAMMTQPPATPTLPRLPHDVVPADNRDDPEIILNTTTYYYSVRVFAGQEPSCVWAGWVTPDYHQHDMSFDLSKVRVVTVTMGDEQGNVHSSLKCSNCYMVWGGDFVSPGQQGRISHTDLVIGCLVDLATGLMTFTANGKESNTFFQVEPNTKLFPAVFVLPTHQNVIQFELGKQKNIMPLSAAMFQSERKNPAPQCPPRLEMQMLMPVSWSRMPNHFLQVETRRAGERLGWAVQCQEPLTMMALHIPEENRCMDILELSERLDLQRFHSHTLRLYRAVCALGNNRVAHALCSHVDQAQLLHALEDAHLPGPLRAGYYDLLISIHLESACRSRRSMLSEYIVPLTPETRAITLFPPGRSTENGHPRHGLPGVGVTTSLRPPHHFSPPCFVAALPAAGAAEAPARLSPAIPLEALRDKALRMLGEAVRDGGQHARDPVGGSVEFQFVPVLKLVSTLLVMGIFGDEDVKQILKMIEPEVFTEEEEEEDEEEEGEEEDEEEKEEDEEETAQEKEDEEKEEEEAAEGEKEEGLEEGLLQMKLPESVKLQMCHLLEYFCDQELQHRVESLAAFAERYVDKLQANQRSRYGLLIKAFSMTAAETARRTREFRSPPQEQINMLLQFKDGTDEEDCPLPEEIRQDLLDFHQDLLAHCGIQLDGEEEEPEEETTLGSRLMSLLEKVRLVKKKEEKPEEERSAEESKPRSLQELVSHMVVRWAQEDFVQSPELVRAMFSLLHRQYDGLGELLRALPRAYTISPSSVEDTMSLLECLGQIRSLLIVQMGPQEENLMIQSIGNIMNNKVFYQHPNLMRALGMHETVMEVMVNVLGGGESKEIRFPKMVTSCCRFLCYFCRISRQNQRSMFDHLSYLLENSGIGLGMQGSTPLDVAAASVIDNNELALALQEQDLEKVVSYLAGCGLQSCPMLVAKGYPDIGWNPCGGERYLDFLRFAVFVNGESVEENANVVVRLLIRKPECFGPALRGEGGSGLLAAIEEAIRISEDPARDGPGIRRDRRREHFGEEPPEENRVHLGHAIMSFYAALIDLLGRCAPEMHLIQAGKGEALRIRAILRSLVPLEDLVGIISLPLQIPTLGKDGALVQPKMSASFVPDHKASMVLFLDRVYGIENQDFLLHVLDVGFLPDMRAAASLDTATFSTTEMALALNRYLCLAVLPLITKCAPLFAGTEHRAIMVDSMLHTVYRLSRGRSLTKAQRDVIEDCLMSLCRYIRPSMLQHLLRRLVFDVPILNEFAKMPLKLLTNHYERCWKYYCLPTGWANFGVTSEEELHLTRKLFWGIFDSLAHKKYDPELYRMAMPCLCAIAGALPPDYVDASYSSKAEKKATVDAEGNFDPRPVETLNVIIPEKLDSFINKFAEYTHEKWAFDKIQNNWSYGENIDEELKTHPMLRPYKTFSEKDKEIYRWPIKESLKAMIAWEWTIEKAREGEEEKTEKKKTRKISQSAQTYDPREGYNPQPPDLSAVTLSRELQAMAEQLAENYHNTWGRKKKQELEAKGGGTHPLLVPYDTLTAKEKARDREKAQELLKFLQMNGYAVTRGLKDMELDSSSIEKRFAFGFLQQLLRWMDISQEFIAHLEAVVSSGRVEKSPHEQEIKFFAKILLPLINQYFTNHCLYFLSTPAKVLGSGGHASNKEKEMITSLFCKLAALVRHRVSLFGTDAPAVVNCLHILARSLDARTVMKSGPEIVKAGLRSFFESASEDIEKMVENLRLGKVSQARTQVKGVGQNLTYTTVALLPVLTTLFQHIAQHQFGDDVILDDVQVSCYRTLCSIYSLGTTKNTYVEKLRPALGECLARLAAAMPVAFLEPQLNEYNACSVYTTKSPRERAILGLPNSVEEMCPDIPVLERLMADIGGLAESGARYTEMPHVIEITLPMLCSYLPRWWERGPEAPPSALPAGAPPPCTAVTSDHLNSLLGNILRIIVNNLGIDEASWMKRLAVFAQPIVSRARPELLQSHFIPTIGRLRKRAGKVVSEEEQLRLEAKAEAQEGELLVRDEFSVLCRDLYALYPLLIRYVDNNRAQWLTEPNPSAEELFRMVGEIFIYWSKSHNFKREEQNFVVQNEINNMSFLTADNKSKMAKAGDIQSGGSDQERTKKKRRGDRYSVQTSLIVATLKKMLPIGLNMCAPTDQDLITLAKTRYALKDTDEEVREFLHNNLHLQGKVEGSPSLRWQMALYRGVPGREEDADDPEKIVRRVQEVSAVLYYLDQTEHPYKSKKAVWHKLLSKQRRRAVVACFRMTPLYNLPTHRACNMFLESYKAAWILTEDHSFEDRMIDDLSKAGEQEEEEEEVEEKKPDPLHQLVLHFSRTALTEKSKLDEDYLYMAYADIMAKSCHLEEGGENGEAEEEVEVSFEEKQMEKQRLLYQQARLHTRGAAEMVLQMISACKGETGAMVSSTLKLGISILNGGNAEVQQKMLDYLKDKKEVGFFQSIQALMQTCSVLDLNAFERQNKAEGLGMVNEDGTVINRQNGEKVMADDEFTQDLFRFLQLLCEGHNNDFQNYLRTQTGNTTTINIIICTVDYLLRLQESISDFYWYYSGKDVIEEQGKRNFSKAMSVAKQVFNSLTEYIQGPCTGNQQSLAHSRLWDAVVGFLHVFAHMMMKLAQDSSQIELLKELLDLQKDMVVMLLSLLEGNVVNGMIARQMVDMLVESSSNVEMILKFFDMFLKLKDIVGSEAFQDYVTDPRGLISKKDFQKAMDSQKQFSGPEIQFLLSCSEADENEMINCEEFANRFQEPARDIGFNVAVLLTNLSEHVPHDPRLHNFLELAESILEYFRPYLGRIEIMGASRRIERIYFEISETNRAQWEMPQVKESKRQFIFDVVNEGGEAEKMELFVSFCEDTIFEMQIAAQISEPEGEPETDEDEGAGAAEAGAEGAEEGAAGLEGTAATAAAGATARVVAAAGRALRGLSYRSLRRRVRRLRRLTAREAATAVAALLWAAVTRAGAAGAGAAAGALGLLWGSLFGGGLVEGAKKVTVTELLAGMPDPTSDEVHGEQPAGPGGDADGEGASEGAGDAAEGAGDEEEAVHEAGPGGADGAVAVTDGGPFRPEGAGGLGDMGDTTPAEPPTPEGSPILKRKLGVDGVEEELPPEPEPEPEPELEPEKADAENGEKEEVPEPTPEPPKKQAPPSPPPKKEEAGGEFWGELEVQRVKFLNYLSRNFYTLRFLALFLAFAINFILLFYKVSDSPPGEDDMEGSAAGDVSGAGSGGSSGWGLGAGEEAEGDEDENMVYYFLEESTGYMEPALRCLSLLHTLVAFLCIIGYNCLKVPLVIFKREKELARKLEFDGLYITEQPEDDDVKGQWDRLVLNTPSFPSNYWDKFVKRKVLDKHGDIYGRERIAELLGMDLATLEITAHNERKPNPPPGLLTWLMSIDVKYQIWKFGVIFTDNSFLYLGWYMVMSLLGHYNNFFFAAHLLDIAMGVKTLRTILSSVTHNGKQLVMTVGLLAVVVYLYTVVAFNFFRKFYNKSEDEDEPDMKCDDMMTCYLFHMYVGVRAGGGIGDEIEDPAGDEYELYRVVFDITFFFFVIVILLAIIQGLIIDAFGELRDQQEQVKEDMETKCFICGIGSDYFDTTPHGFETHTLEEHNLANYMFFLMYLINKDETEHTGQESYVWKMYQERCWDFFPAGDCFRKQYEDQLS", "conditions": "Control: Untreated receptor; cited from earlier work"}, "NA/H exchanger": {"tested_on": "NA/H exchanger", "conditions": "Control: Untreated exchanger; cited from earlier work"}, "[4]": {"tested_on": "human umbilical vein endothelial cells (HUVEC)", "conditions": "galloyl-derivative compared to non-galloylated parent molecule; cited from earlier work"}, "[5]": {"tested_on": "heme oxygenase 1 in RAW264, 7 cells", "conditions": "galloyl-derivative compared to non-galloylated parent molecule; cited from earlier work"}, "HUVEC [6]": {"tested_on": "HUVEC", "conditions": "cited from earlier work"}, "RAW264.7 mouse cells": {"tested_on": "RAW264.7 mouse cells", "assay": "Nitric Oxide Assay (DAF-FM fluorescence, confocal microscopy)", "assay_type": "cell-based", "procedure": "Drug Preparation. […] The current formulation, L-arginine (COMPOUND SOLUTIONS) and L-citrulline DL-malate 2:1 (COMPOUND SOLUTIONS) were each prepared at 300 mg/ml in DMEM without phenol red (CORNING) and stored at −20° C. until use. Arginine silicate and lipopolysaccharides from E. coli 0111: B4 (LPS; SIGMA ALDRICH) were dissolved in DMSO to 300 mg/ml and 50 μg/ml, respectively, and stored frozen until use. 4,5-Diaminofluorescein Diacetate (DAF-FM) was diluted from 5 mM stocks in DMSO.\nCell Culture. […] All experiments were completed with cultures under 8 passages, and cell densities were maintained between 0.2×10^6 and 0.8×10^6 cells per ml during maintenance.\nCells were triturated with complete growth medium. Density was determined under phase-contrast using 0.2% Trypan blue. Three viable cell counts were performed on the hemocytometer and averaged.\nNitric Oxide Assay. […] DAF-FM diacetate is essentially non-fluorescent until it reacts with nitric oxide to form a fluorescent benzotriazole. DAF-FM diacetate is cell-permeant and passively diffuses across cellular membranes. Once inside cells, it is deacetylated by intracellular esterases to become DAF-FM.\nHere, cells (50,000) in 3 ml of complete growth medium were plated onto 35-mm glass bottom dishes (MATTEK) pre-coated with poly-D-lysine. Cells were grown for 24 h and washed twice in HBS. Three (3) ml of serum-free medium was added. Cells were then treated with 1 μM lipopolysaccharide or various concentrations of test agents and grown for an additional 30 min. DAF-FM was added to cells to a final concentration of 2 μM and incubated for an additional 30 min.\nFor confocal microscopy, medium was removed, and cells were washed once in HBS and replaced with 3 ml Live Cell Imaging solution (INVITROGEN). […] For cell treatments resulting in little or no fluorescence, 4′,6-diamidino-2-phenylindole (DAPI, MOLECULAR PROBES) was added at a final concentration of 300 nM to an additional sample. Images were captured and analyzed as tiff formatted files. […] For determining fluorescence, the entire image was analyzed for each image taken."}, "[7]": {"tested_on": "fatty acid synthase expression, MCF-7 cells", "conditions": "Control: Untreated cells; cited from earlier work"}, "HL-60 cells [8]": {"tested_on": "HL-60 cells", "conditions": "Control: Untreated cells; cited from earlier work"}, "LNCaP and DU145 cells": {"tested_on": "LNCaP and DU145 cells", "conditions": "Control: Untreated cells; cited from earlier work"}, "[9]": {"tested_on": "MCF-7 and MDA-MB231 cells", "conditions": "Control: Untreated cells; cited from earlier work"}, "HL-60 cells [10]": {"tested_on": "HL-60 cells", "conditions": "Control: Untreated cells; cited from earlier work", "remark": "listed apart in the source"}, "erythrocytes": {"tested_on": "erythrocytes", "conditions": "Control: Untreated erythrocytes; cited from earlier work"}, "K562 cells": {"tested_on": "K562 cells", "conditions": "cited from earlier work"}, "[11]": {"target": "T2, rat liver microsomal 5α-reductase (Rattus norvegicus, UniProt P24008)", "T2 sequence (P24008 1-259)": "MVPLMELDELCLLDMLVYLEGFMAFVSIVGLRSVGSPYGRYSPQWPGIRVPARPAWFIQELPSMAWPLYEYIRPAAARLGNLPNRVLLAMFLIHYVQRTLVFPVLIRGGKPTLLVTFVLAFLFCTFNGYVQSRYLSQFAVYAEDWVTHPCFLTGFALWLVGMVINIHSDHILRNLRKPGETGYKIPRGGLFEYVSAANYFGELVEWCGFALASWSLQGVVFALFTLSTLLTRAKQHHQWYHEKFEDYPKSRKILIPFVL", "conditions": "cited from earlier work"}, "[12]": {"conditions": "Control: C, EC; cited from earlier work"}}, "note": "Read-outs that look alike come from different tables or passages of the source.", "data": [{"compound": "Oc1cc(O)c2c(c1)O[C@H](c1ccc(O)c(O)c1)[C@H](O)C2", "note": "[EC, epicatechin]", "values": [{"measurement": "Effect: Cytotoxicity towards S-G cells (immortalized gum epithelial cells)", "setting": "[1]", "value": "↑"}]}, {"compound": "O=C(O[C@@H]1Cc2c(O)cc(O)cc2O[C@@H]1c1ccc(O)c(O)c1)c1cc(O)c(O)c(O)c1", "note": "[ECG, Epicatechin gallate]", "values": [{"measurement": "Effect: Inhibition of VEGF-induced proliferation of HUVEC", "setting": "HUVEC [2]", "value": "↑↑"}, {"measurement": "Effect: Inhibition of fatty acid synthase activity", "setting": "fatty acid synthase", "value": "↑↑↑"}, {"measurement": "Effect: Inhibition of NA+/K+ ATPase pump activity", "setting": "NA+/K+ ATPase pump", "value": "↑↑"}, {"measurement": "Effect: Cytotoxicity towards S-G cells (immortalized gum epithelial cells)", "setting": "[1]; Control: Untreated cells", "value": "↑↑↑"}, {"measurement": "Effect: Reduction of pancreatic lipase activity in vitro", "setting": "pancreatic lipase", "value": "↑↑"}, {"measurement": "Effect: Activiation of type 1 ryanodine receptor", "setting": "[3]", "value": "↑↑↑"}, {"measurement": "Effect: Inhibition of NA/H exchanger activity", "setting": "NA/H exchanger", "value": "↑↑"}, {"measurement": "Effect: Inhibition of VEGF-induced proliferation migration and tube formation of human umbilical vein endothelial cells (HUVEC)", "setting": "[4]", "value": "↑^c"}]}, {"compound": "O=C(Oc1c(-c2ccc(O)c(O)c2)oc2cc(O)cc(O)c2c1=O)c1cc(O)c(O)c(O)c1", "note": "[3GQ]", "values": [{"measurement": "Effect: Induction of heme oxygenase 1 in RAW264, 7 cells", "setting": "[5]", "value": "↓↓"}, {"measurement": "Effect: Cytotoxicity, inhibition of proliferation, migration and tube formation of HUVEC", "setting": "HUVEC [6]", "value": "↑↑"}]}, {"compound": "O=C(O[C@H]1Cc2c(O)cc(O)cc2O[C@@H]1c1ccc(O)c(O)c1)c1cc(O)c(O)c(O)c1", "note": "[CG]", "values": [{"measurement": "Effect: Cytotoxicity towards S-G cells (immortalized gum epithelial cells)", "setting": "[1]; Control: Untreated cells", "value": "↑↑↑"}, {"measurement": "Effect: Reduction of pancreatic lipase activity in vitro", "setting": "pancreatic lipase", "value": "↑↑↑"}]}, {"compound": "NC(=O)NCCC[C@H](N)C(=O)O.NC(=O)NCCC[C@H](N)C(=O)O.O=C(O)CC(O)C(=O)O", "note": "(racemic) [L-citrulline-DL-malate 2:1, L-citrulline DL-malate 2:1]", "values": [{"measurement": "mean fluorescence (DAF-FM)", "setting": "RAW264.7 mouse cells; RAW264.7 cells, 600 μg/ml samples", "value": "noticeably low mean fluorescence"}]}, {"compound": "catechin", "values": [{"measurement": "Effect: Suppression of fatty acid synthase expression n MCF-7 cells", "setting": "[7]", "value": "•"}, {"measurement": "Effect: Inhibition of fatty acid synthase activity", "setting": "fatty acid synthase", "value": "•"}]}, {"compound": "O=C(O)c1cc(O)c(O)c(O)c1", "note": "[GA, gallic acid]", "values": [{"measurement": "Effect: Induction of apoptosis in HL-60 cells", "setting": "HL-60 cells [8]", "value": "↑↑"}, {"measurement": "Effect: Inhibition of fatty acid synthase activity", "setting": "fatty acid synthase", "value": "↑"}]}, {"compound": "O=C(OC[C@H]1O[C@@H](OC(=O)c2cc(O)c(O)c(O)c2)[C@H](OC(=O)c2cc(O)c(O)c(O)c2)[C@@H](OC(=O)c2cc(O)c(O)c(O)c2)[C@@H]1OC(=O)c1cc(O)c(O)c(O)c1)c1cc(O)c(O)c(O)c1", "note": "[PGG]", "values": [{"measurement": "Effect: Inhibitory effects on LNCaP and DU145 cells", "setting": "LNCaP and DU145 cells", "value": "↑↑↑"}, {"measurement": "Effect: Growth inhibition of MCF-7 and MDA-MB231 cells", "setting": "[9]", "value": "↑↑↑"}, {"measurement": "Effect: Reduction of cell viability in HL-60 cells", "setting": "HL-60 cells [10]", "value": "↑↑↑"}, {"measurement": "Effect: Triggering of suicidal erythrocyte death", "setting": "erythrocytes", "value": "↑↑"}, {"measurement": "Effect: Cytotoxicity towards K562 cells", "setting": "K562 cells", "value": "↑"}, {"measurement": "Effect: Inhibition of rat liver microsomal 5α-reductase", "setting": "[11]", "value": "↑↑↑"}]}, {"compound": "lipopolysaccharides from E. coli 0111: B4 [LPS]", "values": [{"measurement": "DAF-FM fluorescence (nitric oxide levels)", "setting": "RAW264.7 mouse cells; RAW264.7 cells, 1 ng/ml incubated for 30 minutes", "value": "bright and consistent DAF-FM fluorescence"}]}, {"compound": "N=C(N)NCCC[C@H](N)C(=O)O", "note": "[L-arginine]", "values": [{"measurement": "mean fluorescence (DAF-FM)", "setting": "RAW264.7 mouse cells", "value": "noticeably low mean fluorescence"}]}, {"compound": "O=C(O[C@@H]1Cc2c(O)cc(O)cc2O[C@@H]1c1cc(O)c(O)c(O)c1)c1cc(O)c(O)c(O)c1", "note": "[EGCG, epigallocatechin gallate]", "values": [{"measurement": "Effect: Cytotoxicity, inhibition of proliferation, migration and tube formation of HUVEC", "setting": "HUVEC [6]; galloyl-derivative compared to non-galloylated parent molecule", "value": "↑↑^c"}, {"measurement": "Effect: Reduction of cell viability in HL-60 cells", "setting": "HL-60 cells [10]", "value": "↑↑"}, {"measurement": "Effect: Trolox-equivalent antioxidant activity", "setting": "[12]", "value": "↑↑"}, {"measurement": "Effect: Suppression of fatty acid synthase expression n MCF-7 cells", "setting": "[7]", "value": "↑↑↑"}, {"measurement": "Effect: Inhibition of VEGF-induced proliferation of HUVEC", "setting": "HUVEC [2]", "value": "↑↑"}, {"measurement": "Effect: Inhibition of fatty acid synthase activity", "setting": "fatty acid synthase", "value": "↑↑↑"}, {"measurement": "Effect: Inhibition of NA+/K+ ATPase pump activity", "setting": "NA+/K+ ATPase pump", "value": "↑↑"}, {"measurement": "Effect: Cytotoxicity towards S-G cells (immortalized gum epithelial cells)", "setting": "[1]", "value": "↑↑↑"}, {"measurement": "Effect: Reduction of pancreatic lipase activity in vitro", "setting": "pancreatic lipase", "value": "↑↑"}, {"measurement": "Effect: Activiation of type 1 ryanodine receptor", "setting": "[3]", "value": "↑↑↑"}, {"measurement": "Effect: Inhibition of NA/H exchanger activity", "setting": "NA/H exchanger", "value": "↑"}, {"measurement": "Effect: Inhibition of rat liver microsomal 5α-reductase", "setting": "[11]; Control: Untreated enzyme", "value": "↑"}]}, {"compound": "O=C(O[C@@H]1Cc2c(O)cc(O)cc2O[C@H]1c1cc(O)c(O)c(O)c1)c1cc(O)c(O)c(O)c1", "note": "[GCG]", "values": [{"measurement": "Effect: Reduction of pancreatic lipase activity in vitro", "setting": "pancreatic lipase", "value": "↑↑↑"}]}, {"compound": "O=C(Oc1cc(O)c2c(c1)O[C@H](c1ccc(O)c(O)c1)[C@@H](O)C2=O)c1cc(O)c(O)c(O)c1", "note": "[7GT]", "values": [{"measurement": "Effect: Induction of heme oxygenase 1 in RAW264, 7 cells", "setting": "[5]", "value": "↑↑↑"}, {"measurement": "Effect: Cytotoxicity, inhibition of proliferation, migration and tube formation of HUVEC", "setting": "HUVEC [6]", "value": "↑↑"}]}, {"compound": "Oc1cc(O)c2c(c1)O[C@H](c1cc(O)c(O)c(O)c1)[C@H](O)C2", "note": "[EGC]", "values": [{"measurement": "Effect: Suppression of fatty acid synthase expression n MCF-7 cells", "setting": "[7]", "value": "•"}, {"measurement": "Effect: Inhibition of VEGF-induced proliferation of HUVEC", "setting": "HUVEC [2]", "value": "↑"}, {"measurement": "Effect: Inhibition of fatty acid synthase activity", "setting": "fatty acid synthase", "value": "↑"}, {"measurement": "Effect: Inhibition of NA+/K+ ATPase pump activity", "setting": "NA+/K+ ATPase pump", "value": "↑"}, {"measurement": "Effect: Cytotoxicity towards S-G cells (immortalized gum epithelial cells)", "setting": "[1]; Control: Untreated cells", "value": "↑↑"}, {"measurement": "Effect: Activiation of type 1 ryanodine receptor", "setting": "[3]", "value": "↑"}, {"measurement": "Effect: Inhibition of NA/H exchanger activity", "setting": "NA/H exchanger", "value": "↑↑↑"}]}]}
